Data reported in patent US9290789B2, “Method for measuring cells, and reagent for cell measurement” (HITACHI HIGH-TECHNOLOGIES CORPORATION, priority 2011, dated 2016).

Assays:
[1] = test system: Methylobacterium extorquens; experiment: Intracellular ATP level by ATP luminescence method; type: cell-based
Experimental: An M. extorquens cell suspension was prepared according to the following procedures. M. extorquens was cultured with agitation in 5 mL of SCD liquid medium (Nissui Pharmaceutical Co., Ltd.) for 72 hours at 25° C. The culture solution (medium) was dispensed into tubes, and then centrifuged for 10 minutes at 10000 rpm, so as to collect cells onto the tube bottoms. Supernatant was removed, and then water was added instead, to suspend cells. Centrifugation was performed again for 10 minutes at 10000 rpm, so as to collect cells onto the tube bottoms. This step was repeated 3 times, medium components were removed, and thus a cell suspension was prepared. Subsequently, the cells were cultured with agitation in water for injection for 3 days at 37° C., so that a cell suspension for ATP luminescence measurement was prepared. […]
Reagents included in a Lucifer HS set (Kikkoman Biochemifa Company) were used as reagents for ATP luminescence measurement. In addition, the Lucifer HS set comprises an ATP elimination enzyme, an ATP extraction reagent, and a luminescent reagent included therewith. […]
100 μL of an ATP extraction solution was added to 100 μL of the mixture after heating. 50 μL of each sample after ATP extraction was added to 50 μL of the luminescent reagent. The thus generated luminescence was measured.
10 μL each of glucose (Wako Pure Chemical Industries, Ltd.), alanine (Wako Pure Chemical Industries, Ltd.), ATPase, 10% methanol, and a phosphate buffer (pH 7.4) (Invitrogen) were added to 50 μL of the M. extorquens cell suspension, thereby preparing a total of 100 μL of a mixture. When glucose, alanine, and methanol were not added, the solution was adjusted to a total 100 μL volume with a phosphate buffer (Table 3, sample Nos. 1 to 5). The mixture was heated at 37° C. for 30 minutes. In the extracellular ATP removal•intracellular ATP increase step (for removing ATP outside of viable cells and increasing ATP within viable cells), 100 μL of an ATP extraction solution was added to 100 μL of the mixture (Table 3, sample Nos. 1 to 4). For comparison of the ATP extraction efficiency of methanol, in the ATP extraction step, 100 μL, of the mixture was mixed with 100 μL of a 1% methanol-containing ATP extraction solution (Table 3, sample No. 5). After ATP extraction, 50 μL of the sample was added to 50 μL of the luminescent reagent, and then the thus generated luminescence was measured. […]
10 μL each of glucose, alanine, ATPase, and if necessary, 10 (v/v) % methanol were added to 50 μL of the M. extorquens cell suspension. Finally, a phosphate buffer (pH 7.4) (Invitrogen) was added for adjustment to a total 100 μL volume. The final concentrations of glucose and alanine ranged from 0.1 mM to 100 mM, and the final concentrations of ATPase and methanol were 10 (v/v) % and 1 (v/v) %, respectively. Each mixture was heated at 37° C. for 30 minutes. 100 μL of an ATP extraction solution was added to 100 μL of the heated mixture, and then 50 μL of sample after ATP extraction was added to 50 μL of a luminescent reagent. The thus generated luminescence was measured.
10 μL each of glucose, alanine, ATPase, and methanol were added to 50 μL of the M. extorquens cell suspension. Finally, a phosphate buffer (pH 7.4) (Invitrogen) was added for adjustment to a total 100 μL volume. The final concentrations of glucose and alanine were each 0.1 mM, the final ATPase concentration was 10 (v/v) %, and the final methanol concentrations ranged from 0% to 80%. Each mixture was heated at 37° C. for 30 minutes. After heating, to remove methanol-containing mixtures, all mixtures were subjected to centrifugal filtration (1 min, 2000 rpm) using Ultrafree-MC, and then mixtures as filtrates were discarded. Subsequently, 200 μL of water was added onto the filter and filtrated to wash the filter. In addition, washing was repeated 5 times. […]

[2] = test system: ATP•luciferase•luciferin reaction; experiment: Effect of methanol on ATP luminescent reaction; type: biochemical; settings: 1000 amol ATP/50 μL; for Relative luminescence: methanol-free ATP solution = 100
Experimental: 1 mL of an ATP solution (2×10^5 amol ATP/mL, Kikkoman Biochemifa Company Lucifer ATP standard reagent set) was mixed with 10 μl to 5 mL of 100% methanol (Wako Pure Chemical Industries, Ltd.). Water (Invitrogen) was further added to each solution, and thus ATP/methanol solutions (10 mL each) with final methanol concentrations ranging from 0.1 to 50 (v/v) % were prepared (ATP concentration: 2×10^4 amol ATP/mL). Subsequently, 50 μL of the ATP/methanol solution and 50 μL of a luminescent reagent (Kikkoman Biochemifa Company, included with a Lucifer HS set) were mixed to cause a luminescent reaction to take place. The resulting luminescence levels were measured by photocounting using a photomultiplier.
For comparison, 1 mL of a methanol-free ATP solution (2×10^4 amol ATP/mL) was prepared. Subsequently, 50 μL of an ATP solution and 50 μL of the luminescent reagent were mixed to cause a luminescent reaction to take place, and then the luminescence level was measured.

ATPase = experiment: Residual ATPase activity according to methanol concentrations; type: biochemical; settings: 37° C. for 30 minutes
Experimental: 10 μL of an ATPase-containing ATP elimination solution (Kikkoman Biochemifa Company, ATP elimination reagent included with a Lucifer HS set) was mixed with 80 μL of methanol, the concentration of which had been adjusted. An ATP solution (2×10^6 amol/10 μL) was added to the solution and then it was left to stand at 37° C. for 30 minutes. In addition, the final methanol concentrations were adjusted to 0.1 to 80 (v/v) %.
To measure the remaining ATP level after the addition of the above mixture to a luminescent reagent, the mixture was diluted in water to a methanol concentration of 0.1 (v/v) % or less, assuring that the methanol would not affect the ATP luminescent reaction (Reference Example 2, Table 2). Subsequently, 50 μL of the diluted solution (1×10^3 amol ATP/50 μL) was added to 50 μL of the luminescent reagent, and then the luminescence level was measured. Furthermore, an ATP solution (1×10^3 amol/50 μL) to which no ATPase had been added was prepared. The luminescence level according to the ATP solution was also measured. The luminescence level of the ATPase-free ATP solution was considered almost the same as that of an ATP solution to which ATP had been added after the loss of ATPase activity.

Bacillus subtilis = experiment: Cell viability (colony count) after methanol exposure; type: cell-based; settings: 80 (v/v) % methanol, 1 minute; colony count at 0% methanol = 100%
Experimental: (§1) 10 μL of a cell suspension and 90 μL of methanol, the concentration of which had been adjusted, were mixed, thereby preparing 100 μL of a cell/methanol suspension. The final methanol concentrations ranged from 0 to 80 (v/v) %. As microorganisms (cells), Bacillus subtilis (bacterium, spores, ATCC 6633), Staphylococcus aureus (bacterium, aerobic, ATCC 6538), and Candida albicans (fungus, yeast, ATCC 10231) were used. Each cell suspension was mixed with methanol and then the mixture was left to stand for 1 minute. In the case of bacteria, the mixture was applied and spread over R2A medium (Nissui Pharmaceutical Co., Ltd.) and then cultured at 25° C. for 7 days. In the case of fungi, the mixture was applied and spread over PDA medium (Nissui Pharmaceutical Co., Ltd.) and then cultured at 25° C. for 5 days. After culture, the colony count was then measured according to each methanol concentration. The colony count in the case of 0% methanol was designated as 100% cell viability. Cell viability according to each methanol concentration was examined.

Candida albicans = experiment: as above; type: cell-based; settings: maximum of 30 (v/v) % methanol, 1 minute; colony count at 0% methanol = 100%
Experimental: as §1

Staphylococcus aureus = experiment: as above; type: cell-based; settings: maximum of 30 (v/v) % methanol, 1 minute; colony count at 0% methanol = 100%
Experimental: as §1

## CO [Methanol, methanol]
[1]; 1% methanol added to 0.1 mM alanine and 0.1 mM glucose (FIG. 4C)
  Intracellular ATP level of M. extorquens: 1.2 amol/CFU
[1]; methanol 0.1% to 20%, 0.1 mM glucose, 0.1 mM alanine, 10% ATPase, filtration
  Intracellular ATP level of M. extorquens, % of the maximum: ≥ 70%
[1]; methanol 0.1% to 20%, 0.1 mM glucose, 0.1 mM alanine, 10% ATPase, filtration (FIGS. 5A and B)
  Intracellular ATP level of M. extorquens: 1.1 amol/CFU
[1]; methanol 0.5%, 0.1 mM glucose, 0.1 mM alanine, 10% ATPase, filtration (FIG. 5A)
  Intracellular ATP level of M. extorquens: 1.5 amol/CFU
[1]; methanol 30% or more, 0.1 mM glucose, 0.1 mM alanine, 10% ATPase, filtration (FIG. 5B)
  Intracellular ATP level of M. extorquens: 0.15 amol/CFU
[1]; methanol 30% or more, relative to the maximum at 0.5% methanol
  Decrease of intracellular ATP level of M. extorquens: 90%
[2]; 0.1% Methanol
  Luminescence level: 12703 CPS
  Relative luminescence: 110%
[2]; 1% Methanol
  Luminescence level: 10200 CPS
  Relative luminescence: 88%
[2]; 10% Methanol
  Luminescence level: 3345 CPS
  Relative luminescence: 29%
[2]; 50% Methanol
  Luminescence level: 13 CPS
  Relative luminescence: 0%
[2]; 50% Methanol, listed as methanol
  Luminescence level: almost no fluorescence
ATPase; methanol concentration 80 (v/v) %
  Residual ATPase activity: 20%
ATPase; methanol concentrations 0 to 50 (v/v) %
  Residual ATPase activity: retained the activity
Bacillus subtilis
  Cell viability of B. subtilis: 100%
Candida albicans
  Cell viability of C. albicans: ≥ 90%
Staphylococcus aureus
  Cell viability of S. aureus: ≥ 90%

## C[C@H](N)C(=O)O [alanine]
[1]; alanine 1 mM or less in the presence of 1 (v/v) % methanol and 100 mM glucose (FIG. 4A)
  Intracellular ATP level of M. extorquens: 0.9 amol/CFU

## O=C[C@H](O)[C@@H](O)[C@H](O)[C@H](O)CO [glucose]
[1]; glucose varied 0.1 mM to 100 mM in the presence of 1 (v/v) % methanol and 50 mM alanine (FIG. 4B)
  Intracellular ATP level of M. extorquens: about 0.5 amol/CFU
